Laboratory results as given in patent US7138361B2, “Herbicidal heterocycles” (E. I. du Pont de Nemours and Company, priority 2000, dated 2006).

Columns and labels:
Assay type in all cases: in vivo
[1] = system: blackgrass (Alopecurus myosuroides); assay: Test B postemergence; conditions: 13 to 15 days
Procedure, shortened: (§1)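 Seeds were planted and sprayed preemergence with test chemical in a non-phytotoxic solvent mixture containing surfactant; postemergence plants (2 to 18 cm, 1- to 4-leaf stage) received the same formulation. Greenhouse hold 13 to 15 days, then visual rating versus untreated controls on a 0–100 scale (0 no effect, 100 complete control).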

[2] = system: lambsquarters (Chenopodium album); assay: Test B postemergence; conditions: 13 to 15 days
Procedure, shortened: as §1

[3] = system: morningglory (Ipomoea hederacea); assay: Test C postemergence
Text: Seeds of plant species selected from bermudagrass (Cynodon dactylon), Surinam grass (Brachiaria decumbens), cocklebur (Xanthium strumarium), corn (Zea mays), crabgrass (Digitaria sanguinalis), woolly cupgrass (Eriochloa villosa), giant foxtail (Setaria faberii), goosegrass (Eleusine indica), johnsongrass (Sorghum halepense), kochia (Kochia scoparia), lambsquarters (Chenopodium album), morningglory (Ipomoea hederacea), yellow nutsedge (Cyperus esculentus), pigweed (Amaranthus retroflexus), common ragweed (Ambrosia elatior), soybean (Glycine max) and velvetleaf (Abutilon theophrasti) were planted and treated preemergence with test chemicals formulated in a non-phytotoxic solvent mixture which included a surfactant.
At the same time, plants selected from these crop and weed species and also winter barley (Hordeum vulgare), blackgrass (Alopecurus myosuroides), canary grass (Phalaris minor), chickweed (Stellaria media), downy brome (Bromus tectorum), green foxtail (Setaria viridis), Italian ryegrass (Lolium multiflorum), wheat (Triticum aestivum), wild oat (Avena fatua) and windgrass (Apera spica-venti) were treated with postemergence applications of some of the test chemicals formulated in the same manner. Plants ranged in height from 2 to 18 cm (1- to 4-leaf stage) for postemergence treatments. Plant species in the flooded paddy test consisted of rice (Oryza saliva), smallflower flatsedge (Cyperus difformis), duck salad (Heteranthera limosa) and barnyardgrass (Echinochloa crus-galli) grown to the 2-leaf stage for testing. Treated plants and controls were maintained in a greenhouse for 12 to 14 days, after which time all species were compared to controls and visually evaluated. Plant response ratings, summarized in Table C, are based on a scale of 0 to 100 where 0 is no effect and 100 is complete control. A dash (-) response means no test result.

[4] = system: barnyardgrass (Echinochloa crus-galli); assay: Test C flooded paddy test; conditions: for Barnyardgrass plant response rating: Flooded Paddy, scale 0 to 100, 0 no effect, 100 complete control; for Plant response rating, Barnyardgrass: flooded paddy test, scale 0 to 100 (0 no effect, 100 complete control)
Procedure, shortened: (§2)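 Ratings come from visual comparison with control plants after 12 to 14 days in the greenhouse. Each species was at the 2-leaf stage when the flooded paddy was treated. Scores run from 0, meaning no effect, to 100, meaning complete control.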

[5] = system: duck salad (Heteranthera limosa); assay: Test C flooded paddy test; conditions: for Ducksalad plant response rating: Flooded Paddy, scale 0 to 100, 0 no effect, 100 complete control; for Plant response rating, Ducksalad: flooded paddy test, scale 0 to 100 (0 no effect, 100 complete control)
Procedure, shortened: as §2

[6] = system: rice (Oryza saliva); assay: Test C flooded paddy test; conditions: for Rice plant response rating: Flooded Paddy, scale 0 to 100, 0 no effect, 100 complete control; for Plant response rating, Rice: flooded paddy test, scale 0 to 100 (0 no effect, 100 complete control)
Procedure, shortened: as §2

[7] = system: smallflower flatsedge (Cyperus difformis); assay: Test C flooded paddy test; conditions: for Flatsedge plant response rating: Flooded Paddy, scale 0 to 100, 0 no effect, 100 complete control; for Plant response rating, Flatsedge: flooded paddy test, scale 0 to 100 (0 no effect, 100 complete control)
Procedure, shortened: as §2

[8] = system: Sunflower; assay: Test C preemergence; conditions: scale 0 to 100
[9] = Rate 125 g/ha, scale 0 (no effect) to 100 (complete control)
[10] = Rate 500 g/ha, scale 0 to 100, 0 is no effect, 100 is complete control
[11] = Rate 125 g/ha, scale 0 to 100, 0 no effect, 100 complete control
[12] = Rate 250 g/ha, scale 0 to 100 (0 no effect, 100 complete control)
[13] = Rate 500 g/ha, scale 0 to 100 (0 no effect, 100 complete control)

| Compound | Plant response rating, Blackgrass [1, 9] | Plant response rating, Blackgrass [1, 10] | Plant response rating, Lambsquarters [2, 9] | Plant response rating, Lambsquarters [2, 10] | Barnyardgrass plant response rating ([4]; Rate 250 g/ha) | Barnyardgrass plant response rating ([4]; Rate 500 g/ha) | Plant response rating, Barnyardgrass ([4]; Rate 62 g/ha) | Plant response rating, Barnyardgrass ([4]; Rate 125 g/ha) | Ducksalad plant response rating ([5]; Rate 250 g/ha) | Ducksalad plant response rating ([5]; Rate 500 g/ha) | Plant response rating, Ducksalad ([5]; Rate 62 g/ha) | Plant response rating, Ducksalad ([5]; Rate 125 g/ha) | Rice plant response rating ([6]; Rate 250 g/ha) | Rice plant response rating ([6]; Rate 500 g/ha) | Plant response rating, Rice ([6]; Rate 62 g/ha) | Plant response rating, Rice ([6]; Rate 125 g/ha) | Flatsedge plant response rating ([7]; Rate 250 g/ha) | Flatsedge plant response rating ([7]; Rate 500 g/ha) | Plant response rating, Flatsedge ([7]; Rate 62 g/ha) | Plant response rating, Flatsedge ([7]; Rate 125 g/ha) | further results |
| --- | --- | --- | --- | --- | --- | --- | --- | --- | --- | --- | --- | --- | --- | --- | --- | --- | --- | --- | --- | --- | --- |
| O=C1C(n2ccc(C3CCC3)n2)SCN1c1cccc(OC(F)(F)F)c1 (centres unmarked) [Compound 38] | 0 | 0 | 80 | 90 | 100 | 100 | 100 | 100 | 90 | 80 | 50 | 90 | 50 | 80 | 20 | 30 | 100 | 100 | 100 | 100 | Plant response rating, Morningglory ([3]; Rate 62 g/ha, scale 0 to 100): 0; Plant response rating, Morningglory [3, 11]: 0; Plant response rating, Morningglory [3, 12]: 0; Plant response rating, Morningglory [3, 13]: 20 |
| CCC(C)c1ccn(C2SCN(c3cccc(OC(F)(F)F)c3)C2=O)n1 (centres unmarked) [Compound 40] | 0 | 0 | 70 | 90 | 100 | 100 | 100 | 100 | 100 | 100 | 90 | 100 | 70 | 90 | 20 | 40 | 100 | 100 | 100 | 100 | Plant response rating, Morningglory ([3]; Rate 62 g/ha, scale 0 to 100): 0; Plant response rating, Morningglory [3, 11]: 0; Plant response rating, Morningglory [3, 12]: 0; Plant response rating, Morningglory [3, 13]: 0 |
| CC(C)(C)c1ccn(C2CCN(c3cccc(Cl)c3)C2=O)n1 (centres unmarked) [Compound 43] | 0 | 0 | 50 | 80 | 100 | 100 | 30 | 80 | 30 | 80 | 0 | 20 | 0 | 30 | 0 | 0 | 100 | 100 | 90 | 100 | Plant response rating, Sunflower ([8]; Rate 16 g/ha): 0; Plant response rating, Sunflower ([8]; Rate 31 g/ha): 0 |
| CC(C)(C)c1ccn(C2CCN(c3cccc(OC(F)(F)F)c3)C2=O)n1 (centres unmarked) [Compound 49] | 0 | 60 | 30 | 50 | 100 | 100 | 100 | 100 | 90 | 100 | 50 | 70 | 30 | 90 | 20 | – | 100 | 100 | 100 | 100 | Plant response rating, Sunflower ([8]; Rate 31 g/ha): 0 |
| CCC(CC)c1ccn(C2OCN(c3cccc(OC(F)(F)F)c3)C2=O)n1 (centres unmarked) [Compound 68] | 0 | 0 | 100 | 100 | 100 | 100 | 90 | 100 | 100 | 100 | 100 | 100 | 30 | 100 | 20 | 30 | 100 | 100 | 100 | 100 | Plant response rating, Morningglory ([3]; Rate 62 g/ha, scale 0 to 100): 50; Plant response rating, Morningglory [3, 11]: 60; Plant response rating, Morningglory [3, 12]: 60; Plant response rating, Morningglory [3, 13]: 70 |
| CCC(C)c1ccn(C2CCN(c3ccc(C)c(OC)c3)C2=O)n1 (centres unmarked) [Compound 80] | 0 | 0 | 10 | 90 | 90 | 90 | 0 | 60 | 100 | 100 | 80 | 100 | 70 | 90 | – | 50 | 90 | 100 | 90 | 90 | Plant response rating, Morningglory ([3]; Rate 62 g/ha, scale 0 to 100): 50; Plant response rating, Morningglory [3, 11]: 60; Plant response rating, Morningglory [3, 12]: 60; Plant response rating, Morningglory [3, 13]: 100 |
